From US20260356830A1, “COMPOUNDS FOR MODULATING RET PROTEIN” (Bristol-Myers Squibb Company, priority 2022, published 2026) come the findings set out here.

The target in the test is T1, CCDC6-RET (Homo sapiens, UniProt P07949+Q16204+Q96SW2).
T1 construct: CCDC6 (natural N-terminal fusion partner, UniProt Q16204); endogenous in cells; host or cells: TPC-1 (parental, papillary thyroid carcinoma)
The experiment in a line: Cellular RET degradation, AlphaLISA, TPC-1 cell line. Type of test: cell-based. To be noted: for Dmax: TPC1, human, 24 h, read-out: Cell Density TPC-1/CCDC6-RET Ymax %; for DC50: read-out: Cell Density TPC-1/CCDC6-RET DC50, half-maximal degradation concentration, TPC-1 (CCDC6-RET), 24 hrs. The method, boiled down:
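Luminescent AlphaLISA read of RET abundance in lysates after 24 h compound exposure (37 °C, 2% FBS DMEM) of CCDC6-RET-bearing TPC-1 cells. % degradation relative to DMSO (high) and media (low) controls, fitted to 4-parameter logistic curve for DC50 and Ymax.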

T1 sequence (Q16204+P07949 fused): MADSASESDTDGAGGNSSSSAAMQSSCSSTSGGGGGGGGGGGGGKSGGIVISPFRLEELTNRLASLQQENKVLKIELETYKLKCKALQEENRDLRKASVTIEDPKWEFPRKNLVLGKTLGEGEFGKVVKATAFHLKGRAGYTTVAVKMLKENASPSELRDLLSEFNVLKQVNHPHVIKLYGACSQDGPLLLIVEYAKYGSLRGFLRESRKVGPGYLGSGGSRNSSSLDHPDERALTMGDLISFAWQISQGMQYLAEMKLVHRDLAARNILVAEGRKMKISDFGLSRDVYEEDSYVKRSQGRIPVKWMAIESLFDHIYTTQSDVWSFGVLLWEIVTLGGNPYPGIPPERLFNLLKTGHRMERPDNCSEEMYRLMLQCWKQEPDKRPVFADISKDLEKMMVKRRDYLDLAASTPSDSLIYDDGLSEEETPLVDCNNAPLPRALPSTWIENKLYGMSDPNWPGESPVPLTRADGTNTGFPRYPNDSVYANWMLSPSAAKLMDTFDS
T1 sequence (Q96SW2 whole entry, the tested form may be a part): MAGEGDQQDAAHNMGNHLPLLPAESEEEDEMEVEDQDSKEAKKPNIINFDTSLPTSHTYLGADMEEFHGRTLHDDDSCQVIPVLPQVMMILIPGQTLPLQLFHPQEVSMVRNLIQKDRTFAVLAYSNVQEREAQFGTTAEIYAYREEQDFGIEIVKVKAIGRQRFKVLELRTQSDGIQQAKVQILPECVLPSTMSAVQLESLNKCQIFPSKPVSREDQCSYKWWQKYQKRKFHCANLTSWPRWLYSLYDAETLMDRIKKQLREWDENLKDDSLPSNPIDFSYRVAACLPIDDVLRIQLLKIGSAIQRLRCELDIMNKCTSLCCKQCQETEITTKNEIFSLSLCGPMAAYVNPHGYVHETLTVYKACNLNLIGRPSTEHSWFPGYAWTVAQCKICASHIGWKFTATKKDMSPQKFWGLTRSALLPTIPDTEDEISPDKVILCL
T1 sequence (Q16531 whole entry partner, the tested form may be a part): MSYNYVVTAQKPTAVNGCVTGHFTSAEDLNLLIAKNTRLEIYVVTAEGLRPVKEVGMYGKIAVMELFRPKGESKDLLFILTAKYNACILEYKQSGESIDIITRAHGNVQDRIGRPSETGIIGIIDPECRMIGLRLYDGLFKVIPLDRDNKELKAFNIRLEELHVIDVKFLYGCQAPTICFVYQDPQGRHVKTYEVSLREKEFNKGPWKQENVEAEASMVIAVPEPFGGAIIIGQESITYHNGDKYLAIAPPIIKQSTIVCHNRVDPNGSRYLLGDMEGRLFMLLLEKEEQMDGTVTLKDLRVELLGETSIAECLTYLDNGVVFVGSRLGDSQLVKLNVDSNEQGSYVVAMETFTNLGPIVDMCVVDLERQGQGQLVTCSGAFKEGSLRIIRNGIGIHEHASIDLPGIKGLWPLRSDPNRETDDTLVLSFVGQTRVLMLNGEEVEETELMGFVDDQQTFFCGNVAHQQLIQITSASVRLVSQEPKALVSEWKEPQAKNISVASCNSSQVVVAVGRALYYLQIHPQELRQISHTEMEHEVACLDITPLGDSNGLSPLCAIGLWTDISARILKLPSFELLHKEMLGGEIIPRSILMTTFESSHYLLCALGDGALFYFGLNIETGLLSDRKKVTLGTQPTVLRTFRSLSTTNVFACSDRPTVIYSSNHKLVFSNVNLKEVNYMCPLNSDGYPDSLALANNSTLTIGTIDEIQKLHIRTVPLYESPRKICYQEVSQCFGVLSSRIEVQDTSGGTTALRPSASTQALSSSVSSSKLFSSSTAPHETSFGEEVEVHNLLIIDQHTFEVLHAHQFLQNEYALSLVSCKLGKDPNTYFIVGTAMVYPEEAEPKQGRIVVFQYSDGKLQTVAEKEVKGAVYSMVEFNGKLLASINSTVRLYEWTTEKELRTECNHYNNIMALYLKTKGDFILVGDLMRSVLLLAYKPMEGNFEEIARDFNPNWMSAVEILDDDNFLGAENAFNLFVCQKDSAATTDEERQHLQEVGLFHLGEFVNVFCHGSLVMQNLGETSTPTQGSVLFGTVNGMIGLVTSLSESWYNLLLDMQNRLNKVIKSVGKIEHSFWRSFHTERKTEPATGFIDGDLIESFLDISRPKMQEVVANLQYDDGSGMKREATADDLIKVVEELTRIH

Consider `CCOc1cc(-c2ccc(N3CCC(NC(=O)c4cc(F)ccc4F)(C(=O)NCCCCCCN4CCC(c5ccc6c(c5)CN(C5CCC(=O)NC5=O)C6=O)CC4)CC3)nc2)c2c(C#N)cnn2c1` (stereo not shown) [Example 157, 1-(5-{3-cyano-6-ethoxypyrazolo[1,5-a]pyridin-4-yl}pyridin-2-yl)-4-(2,5-difluorobenzamido)-N-(6-{4-[2-(2,6-dioxopiperidin-3-yl)-1-oxo-2,3-dihydro-1H-isoindol-5-yl]piperidin-1-yl}hexyl)piperidine-4-carboxamide], for which the Dmax is above 90% and the DC50 lay within 2 to 10 nM.

In the case of `CCOc1cc(-c2ccc(N3CCC(CN(C)C(=O)CCCCN4CCC(c5ccc6c(c5)C(=O)N(C5CCC(=O)NC5=O)C6)CC4)(NC(=O)c4cc(F)ccc4F)CC3)nc2)c2c(C#N)cnn2c1` (stereo not shown) [Example 145, N-[1-(5-{3-cyano-6-ethoxypyrazolo[1,5-a]pyridin-4-yl}pyridin-2-yl)-4-[(5-{4-[2-(2,6-dioxopiperidin-3-yl)-3-oxo-2,3-dihydro-1H-isoindol-5-yl]piperidin-1-yl}-N-methylpentanamido)methyl]piperidin-4-yl]-2,5-difluorobenzamide], the Dmax is 60 to 90% and the DC50 was 2 to 10 nM.

`CCOc1cc(-c2ccc(N3CCC(COCCN4CCN(C(=O)CCN5CCN(c6ccc7c(c6)CN(C6CCC(=O)NC6=O)C7=O)CC5)CC4)(NC(=O)c4cc(F)ccc4F)CC3)nc2)c2c(C#N)cnn2c1` (stereo not shown) [Example 34, N-[1-[5-(3-cyano-6-ethoxy-pyrazolo[1,5-a]pyridin-4-yl)-2-pyridyl]-4-[2-[4-[3-[4-[2-(2,6-dioxo-3-piperidyl)-1-oxo-isoindolin-5-yl]piperazin-1-yl]propanoyl]piperazin-1-yl]ethoxymethyl]-4-piperidyl]-2,5-difluoro-benzamide]: the Dmax is above 90% and the DC50 lay within 10 to 100 nM.

Consider `CCOc1cc(-c2ccc(N3CCC(CN4CCN(C(=O)CCCCCCCCCCNC(=O)COc5cccc6c5CN(C5CCC(=O)NC5=O)C6=O)CC4)(NC(=O)c4cc(F)ccc4F)CC3)nc2)c2c(C#N)cnn2c1` (stereo not shown) [Example 28, N-[1-(5-{3-cyano-6-ethoxypyrazolo[1,5-a]pyridin-4-yl}pyridin-2-yl)-4-({4-[11-(2-{[2-(2,6-dioxopiperidin-3-yl)-1-oxo-2,3-dihydro-1H-isoindol-4-yl]oxy}acetamido)undecanoyl]piperazin-1-yl}methyl)piperidin-4-yl]-2,5-difluorobenzamide], for which the Dmax lay in the range of 60 to 90% and the DC50 fell in the range of 10 to 100 nM.

For the molecule `CCOc1cc(-c2ccc(N3CCC(CN(C)C(=O)CCCCN4CCC(c5ccc6c(c5)CN(C5CCC(=O)NC5=O)C6=O)CC4)(NC(=O)c4cc(F)ccc4F)CC3)nc2)c2c(C#N)cnn2c1` (stereo not shown) [Example 139, N-[1-(5-{3-cyano-6-ethoxypyrazolo[1,5-a]pyridin-4-yl}pyridin-2-yl)-4-[(5-{4-[2-(2,6-dioxopiperidin-3-yl)-1-oxo-2,3-dihydro-1H-isoindol-5-yl]piperidin-1-yl}-N-methylpentanamido)methyl]piperidin-4-yl]-2,5-difluorobenzamide], the Dmax was above 90% and the DC50 lay within 10 to 100 nM.

Consider `CCOc1cc(-c2ccc(N3CCC(CN4CCN(C(=O)C5CC6(C5)CC(C(=O)N5CCN(c7ccc8c(c7)C(=O)N(C7CCC(=O)NC7=O)C8)CC5)C6)CC4)(NC(=O)c4cc(F)ccc4F)CC3)nc2)c2c(C#N)cnn2c1` (stereo not shown) [Example 86, N-[1-(5-{3-cyano-6-ethoxypyrazolo[1,5-a]pyridin-4-yl}pyridin-2-yl)-4-{[4-(6-{4-[2-(2,6-dioxopiperidin-3-yl)-3-oxo-2,3-dihydro-1H-isoindol-5-yl]piperazine-1-carbonyl}spiro[3.3]heptane-2-carbonyl)piperazin-1-yl]methyl}piperidin-4-yl]-2,5-difluorobenzamide], for which the Dmax was above 90% and the DC50 was below 2 nM.

For the molecule `CCOc1cc(-c2ccc(N3CCC(CN4CCN(C(=O)CCN5CC(c6ccc7c(c6)CN(C6CCC(=O)NC6=O)C7=O)C5)CC4)(NC(=O)c4cc(F)ccc4F)CC3)nc2)c2c(C#N)cnn2c1` (stereo not shown) [Example 119, N-[1-(5-{3-cyano-6-ethoxypyrazolo[1,5-a]pyridin-4-yl}pyridin-2-yl)-4-{[4-(3-{3-[2-(2,6-dioxopiperidin-3-yl)-1-oxo-2,3-dihydro-1H-isoindol-5-yl]azetidin-1-yl}propanoyl)piperazin-1-yl]methyl}piperidin-4-yl]-2,5-difluorobenzamide], the Dmax is above 90% and the DC50 is 2 to 10 nM.

In the case of `CCOc1cc(-c2ccc(N3CCC(CN4CCN(C(=O)CCN5CCC(Oc6ccc7c(c6)CN(C6CCC(=O)NC6=O)C7=O)CC5)CC4)(NC(=O)c4cc(F)ccc4F)CC3)nc2)c2c(C#N)cnn2c1` (stereo not shown) [Example 118, N-[1-(5-{3-cyano-6-ethoxypyrazolo[1,5-a]pyridin-4-yl}pyridin-2-yl)-4-({4-[3-(4-{[2-(2,6-dioxopiperidin-3-yl)-1-oxo-2,3-dihydro-1H-isoindol-5-yl]oxy}piperidin-1-yl)propanoyl]piperazin-1-yl}methyl)piperidin-4-yl]-2,5-difluorobenzamide], the Dmax was 60 to 90% and the DC50 fell in the range of 2 to 10 nM.

With `CCOc1cc(-c2ccc(N3CCC(CN4CCN(CCOCCC(=O)N5CCC(c6ccc7c(c6)C(=O)N(C6CCC(=O)NC6=O)C7)CC5)CC4)(NC(=O)c4cc(F)ccc4F)CC3)nc2)c2c(C#N)cnn2c1` (stereo not shown) [Example 101, N-[1-(5-{3-cyano-6-ethoxypyrazolo[1,5-a]pyridin-4-yl}pyridin-2-yl)-4-({4-[2-(3-{4-[2-(2,6-dioxopiperidin-3-yl)-3-oxo-2,3-dihydro-1H-isoindol-5-yl]piperidin-1-yl}-3-oxopropoxy)ethyl]piperazin-1-yl}methyl)piperidin-4-yl]-2,5-difluorobenzamide], the Dmax was above 90% and the DC50 lay within 10 to 100 nM.

For `CCOc1cc(-c2ccc(N3CCC(CN4CCN(C5CC6(CC(C(=O)N7CCN(c8ccc9c(c8)CN(C8CCC(=O)NC8=O)C9=O)CC7)C6)C5)CC4)(NC(=O)c4cc(F)ccc4F)CC3)nc2)c2c(C#N)cnn2c1` (stereo not shown) [Example 94, N-[1-(5-{3-cyano-6-ethoxypyrazolo[1,5-a]pyridin-4-yl}pyridin-2-yl)-4-{[4-(6-{4-[2-(2,6-dioxopiperidin-3-yl)-1-oxo-2,3-dihydro-1H-isoindol-5-yl]piperazine-1-carbonyl}spiro[3.3]heptan-2-yl)piperazin-1-yl]methyl}piperidin-4-yl]-2,5-difluorobenzamide], the Dmax was in the range of 60 to 90% and the DC50 was in the range of 2 to 10 nM.

As for `CCOc1cc(-c2ccc(N3CCC(CN4CCN(C(=O)CCOCCNc5ccc6c(N7CCC(=O)NC7=O)nn(C)c6c5)CC4)(NC(=O)c4cc(F)ccc4F)CC3)nc2)c2c(C#N)cnn2c1` [Example 105, N-[1-(5-{3-cyano-6-ethoxypyrazolo[1,5-a]pyridin-4-yl}pyridin-2-yl)-4-({4-[3-(2-{[3-(2,4-dioxo-1,3-diazinan-1-yl)-1-methyl-1H-indazol-6-yl]amino}ethoxy)propanoyl]piperazin-1-yl}methyl)piperidin-4-yl]-2,5-difluorobenzamide], the Dmax lay within 60 to 90% and the DC50 fell in the range of 2 to 10 nM.
